The values below come from PMC5812297, “Specificity and Application of the Lantibiotic Protease NisP” (Frontiers in Microbiology, 2018).

The subject of experiment [1] is L. lactis NZ9000 (pNZnisP-8H). Kind of experiment: Antimicrobial activity of purified prelantibiotics against NisP producing sensor strain. The experiment is classed as cell-based, Lactococcus lactis. Particulars: no NisP, data not shown. Here is the method: Activity tests were performed by well-diffusion assay as indicated by van Heel et al. ([2013]). L. lactis NZ9000 transformed with the appropriate plasmids or Micrococcus flavus were used as sensor strains as specified in each figure. The cleavage of nisin by NisP after SDS-PAGE was monitored washing the gel according to Bhunia et al. ([1987]) and covering with an overlay of GM17 soft agar inoculated with NZ9000 (pIL3BTC pNZnisA-E3) induced with 1 ng/ml nisin. The overlay was incubated for 16 h, after which the presence of inhibition zones was evaluated.
The substrate tolerance of soluble NisP was tested using a set of different lantibiotics. These were produced using the nisin modification machinery encoded in NZ9000 (pIL3BTC pNZE3-mutant) and purified by cationic exchange chromatography. For this purpose, NZ9000 (pNZ-nisP-8H) was used as a sensor strain and tested using gallidermin (van Heel et al., [2013]) and two lantibiotics detected in the genome of Streptococcus pneumoniae, PneA1 and PneA2 encoded in the genes spr1765 and spr1766, respectively, which were heterologously expressed in L. lactis fused to the nisin leader peptide (Majchrzykiewicz et al., [2010]) (Figure 5). […] The activity was restored when a strain producing soluble NisP was employed.
Figure 5 Antimicrobial activity of purified modified lantibiotics gallidermin, 1215 and 1268 against L. lactis NZ9000 (pNZnisP-8H). […]

The subject of another experiment is NisP. Kind of experiment: Cleavage of nisin mutants by NisP in crude supernatants or purified peptide, masses by MALDI-TOF. It counts as biochemical, Lactococcus lactis. Particulars: His-tagged purified NisP, overnight 37°C, ratio 1000:1, culture pH (4.5–5.0) or pH 6.0, MALDI-TOF. Here is the method: Alternatively, supernatants containing nisin mutant peptides produced after induction were divided into two fractions; one in which the pH was adjusted to 6.0 and the other one where the pH was the actual fermentation pH. They were incubated overnight at 37°C with or without His-tagged purified NisP at a ratio of 1000:1. After the incubation, the supernatants were precipitated using TCA and resuspended in 1/20 volume 0.05% acetic acid. For the mutants that were produced in lower amounts, larger volumes were induced and the peptides were purified by cationic exchange chromatography as described before and separated by reverse phase chromatography using a Jupiter 4 μm Proteo 90 Å 250 × 4.6 mm C12 analytical column (Phenomenex). The column was equilibrated in 20% organic solvent (acetonitrile 0.1% TFA) before the sample injection. It was washed for 5 min before applying a linear gradient from 20 to 50% organic solvent in 20 min. 1 μl of each collected peak was used for mass-spectrometry determination.
Mass spectrometry analysis of the samples was performed by matrix-assisted laser desorption/ionization (MALDI) time-of-flight (ToF) in an ABI Voyager DE Pro (Applied Biosystems) operating in linear mode as previously described using external calibration (van Heel et al., [2013]). Briefly, 1 μl sample was spotted, dried and washed with 5 μL Milli-Q water, on the target. Next, 1 μl of α-cyano-4-hydroxycinnamic acid 5 mg/ml (Sigma-Aldrich) was spotted on the sample.
We designed a set of nisin mutants to investigate the specificity of NisP (Figure 4). For all these mutants, supernatants were collected after induction and divided into three fractions. NisP was added to two of these fractions, one maintaining the pH of the culture (4.5–5.0) and the other fraction was adjusted to pH 6.0. The third fraction was used as an untreated control. After cleavage, the masses of the peptides were monitored by MALDI-TOF (Table 2).

The test system of another experiment is engineered soluble NisP. Kind of experiment: Enzyme kinetic assay of NisP cleavage of prenisin variants (Lineweaver–Burk, RP-HPLC). It counts as biochemical, Lactococcus lactis. The settings on record: for Kcat/Km in comparison, in words: among the four prenisin variants, or vs literature. Here is the method:
In order to investigate the substrate specificity and kinetic parameters of NisP, a set of mutants of P4-P1 was created. We used wild-type prenisin (ASPR), nis-Peng (VSLR), nis-Thrombin (AVPR), and nis-Factor Xa (IEGR) as substrates. The concentration of NisP was determined by the BCA assay with bovine serum albumin as standard. The conditions of cleavage reaction were optimized with 100 mM Tris buffer containing 5 mM CaCl2 (pH 6.0). The reaction was stopped at the indicated times adding TFA to a final concentration of 1%. The reaction was performed in 100 μl with 6.5 ng/ml NisP at 37°C. 1% TFA was added to terminate the reaction at 5 different time points (5, 15, 30, 45, and 60 min). All the samples were analyzed by analytical RP-HPLC as indicated before (Mu et al., [2015]) and measuring the absorbance at 205 nm. For each substrate concentration, the initial velocity was calculated on the basis of the peak area of released nisin vs. time. The kinetic parameters were determined by fitting the calculated enzyme activities at different substrate concentrations (ranging from 1 to 25 μM) to a linear regression curve on Lineweaver–Burk double reciprocal plot (Lineweaver and Burk, [1934]).

Another experiment has as its system sensor bacteria. Particulars: only antimicrobial activity as evidence, ref Kuipers et al., [1995]; cited from earlier work. The text has this: It was anticipated that the binding of dehydrobutyrine in position P2′ was less important than the interaction of Ile in position P1′ with a hydrophobic groove in NisP (Siezen et al., [1995]). Some mutants like I1W were previously shown to be cut by NisP using only the antimicrobial activity as evidence (Kuipers et al., [1995]). […] We could observe that an ...

The next experiment concerns prenisin. The settings on record: cell extracts of induced E. coli, ref van der Meer et al., [1993]; cited from earlier work. The text has this:
During the production of nisin, the protease NisP is exported and anchored to the cell wall in a sortase-mediated manner. In previous attempts to characterize the specificity of NisP, the in vivo cleavage was based on the detection of the antimicrobial activity and the detection of mature lantibiotic compared to that of the prelantibiotic (van der Meer et al., [1994]). The activity in vitro could be confirmed using membrane preparations of cells expressing NisP bound to the cell wall, which limited the assays. Therefore, we engineered a soluble NisP variant that could facilitate this task. Our ...

Setting [2] is: 100 mM Tris 5 mM CaCl2 pH 6.0, 37°C, 6.5 ng/ml NisP, substrate 1 to 25 μM, Lineweaver–Burk, mean value ± standard deviation.

As usually defined, the Km is the substrate concentration at which the rate is half of its maximum. A word on the Vmax: it is the rate approached at saturating substrate.

Ends that are not written are not given here.

With “WT Prenisin (ASPR): fully modified nisin with its leader peptide (ASPR cleavage site); inactive until leader is removed (MSTKDFNLDLVSVSKKDSGASPRITSISLCTPGCKTGALMGCNMKTATCHCSIHVSK; not fully specified (bridges); cysteine pairing not given here; also: fully modified nisin, modifications not placed; UniProt P13068 1-57, looked up)”, in experiment [1], the “Antimicrobial activity in the absence of NisP” value is recorded as “none of the prelantibiotics tested, not even prenisin, was active”. In addition, the “Cleavage by NisP” value with NisP was “fully cleaved”. Moreover, the “Kcat/Km (catalytic efficiency)” value in the experiment with engineered soluble NisP (100 mM Tris 5 mM CaCl2 pH 6.0, 37°C, 6.5 ng/ml NisP) came to 1.71e+06 M⁻¹ s⁻¹. The Km with engineered soluble NisP (100 mM Tris 5 mM CaCl2 pH 6.0, 37°C, 6.5 ng/ml NisP, substrate 1 to 25 μM, 5-60 min, RP-HPLC 205 nm, Lineweaver–Burk, mean value ± standard deviation) came to 0.73 ± 0.08 µM. Moreover, in the experiment on engineered soluble NisP (setting [2]), the Kcat came out at 1.25 ± 0.07 s⁻¹ and the maximum rate (Vmax) turned out to be 1.79 ± 0.10 µmol/mg/min. Moreover, in the experiment on engineered soluble NisP (listed as wild-type nisin), the “Kcat/Km in comparison, in words” value is “in line with previous results in literature”. Besides, the “Kcat/Km in comparison, in words” value in the experiment on engineered soluble NisP (listed as wild-type prenisin (ASPR)) was “highest catalytic efficiency”.
With “nisin I1W: Nisin I1W mutant (MSTKDFNLDLVSVSKKDSGASPRWTSISLCTPGCKTGALMGCNMKTATCHCSIHVSK; ends and bridges not checked; cysteine pairing not given here; UniProt P13068 1-57, looked up, variant I1W)”, the “Cleavage by NisP (earlier work)” value in the experiment with sensor bacteria is “cut by NisP”. Further, the “Cleavage by NisP” value in the experiment with NisP was “fully processed”.

B1: cell wall attached NisP: full length NisP expressed in E. coli (van der Meer et al., 1993) (protein, UniProt Q07596 1-682, looked up)
chain: MKKILGFLFIVCSLGLSATVHGETTNSQQLLSNNINTELINHNSNAILSSTEGSTTDSINLGAQSPAVKSTTRTELDVTGAAKTLLQTSAVQKEMKVSLQETQVSSEFSKRDSVTNKEAVPVSKDELLEQSEVVVSTSSIQKNKILDNKKKRANFVTSSPLIKEKPSNSKDASGVIDNSASPLSYRKAKEVVSLRQPLKNQKVEAQPLLISNSSEKKASVYTNSHDFWDYQWDMKYVTNNGESYALYQPSKKISVGIIDSGIMEEHPDLSNSLGNYFKNLVPKGGFDNEEPDETGNPSDIVDKMGHGTEVAGQITANGNILGVAPGITVNIYRVFGENLSKSEWVARAIRRAADDGNKVINISAGQYLMISGSYDDGTNDYQEYLNYKSAINYATAKGSIVVAALGNDSLNIQDNQTMINFLKRFRSIKVPGKVVDAPSVFEDVIAVGGIDGYGNISDFSNIGADAIYAPAGTTANFKKYGQDKFVSQGYYLKDWLFTTANTGWYQYVYGNSFATPKVSGALALVVDKYGIKNPNQLKRFLLMNSPEVNGNRVLNIVDLLNGKNKAFSLDTDKGQDDAINHKSMENLKESRDTMKQEQDKEIQRNTNNNFSIKNDFHNISKEVISVDYNINQKMANNRNSRGAVSVRSQEILPVTGDGEDFLPALGIVCISILGILKRKTKN
modifications: full-length
Regarding B1, the Activation of prenisin entry in the experiment on prenisin is reported as “could activate prenisin”.
